According to ChEMBL document CHEMBL1125598, “HIV protease: a novel chemotherapeutic target for AIDS” (J Med Chem, 1991):
Where “and” joins values, the source holds several entries; their conditions need not be identical. Equal entries are not always repeated. Peptide text beside a SMILES is read from it.

Assays:
[1] = target: T1, Human immunodeficiency virus type 1 protease (Human immunodeficiency virus 1, UniProt Q72874); assay: Binding affinity for HIV-1 protease
[2] = target: T1, Human immunodeficiency virus type 1 protease; assay: The compound was tested for its affinity against HIV-1 protease
C8166 = assay: Antiviral activity in HIV-1RF infected C8166 cells; assay type: functional, cell-based; details: Homo sapiens
JM1 = assay: Antiviral activity in HIV-1GB8 infected JM cells; assay type: functional, cell-based; details: Homo sapiens
[3] = test system: Human immunodeficiency virus 1; assay: Concentration for prevention of spread of HIV infection; range 25-100 uM; assay type: functional, organism-based
H9 [4] = assay: Inhibitory activity against HIV-1 mB in H9 cells; Range 20-150 nM; assay type: functional, cell-based; details: Homo sapiens
[5] = Toxicity against HIV-1 mB in H9 cells; Range 10 to >100 uM; assay type: cell-based; details: human, read-out: TC50 (the source's name)
[6] = Toxicity against HIV-1 mB in MT-4 cells; Range 10 to >100 uM; assay type: cell-based, MT4; details: human, read-out: TC50 (the source's name)
MT4 = assay: Inhibitory activity against HIV-1 mB in MT-4 cells; Range 20-150 nM; assay type: functional, cell-based; details: Homo sapiens
H9 [7] = assay: Inhibitory activity against HIV-1IIIb in H-9 cells using immunofluorescence; assay type: functional, Homo sapiens

Row | Structure (SMILES) | Ki [1] [nM] | IC50 [2] | also measured
1 | CC(C)[C@H](NC(=O)[C@@H](NC(=O)C1CCCN1CP(=O)(O)[C@@H](Cc1ccccc1)NC(=O)c1ccccc1)C(C)C)C(N)=O (stereo partly drawn) | 450 | – | –
2 | CC(C)[C@H](NC(=O)[C@@H](NC(=O)[C@@H]1CCCN1C[C@H](Cc1ccccc1)NC(=O)[C@H](C)NC(=O)[C@H](C)NC(=O)[C@@H](N)CO)C(C)C)C(N)=O (HELM PEPTIDE1{S.A.A.[O=C([C@@H]1CCCN1C[C@H](Cc1ccccc1)N[*:1])[*:2]].V.V.[am]}$$$$V2.0) | – | 19000 nM | –
3 | CC(C)(C)NC(=O)C1CCCCN1C[C@@H](O)[C@H](Cc1ccccc1)NC(=O)[C@H](CC(N)=O)NC(=O)c1ccc2ccccc2n1 (stereo partly drawn) | – | 2 nM | –
4 | CC(C)(C)NC(=O)[C@H]1C[C@@H]2CCCC[C@@H]2CN1C[C@@H](O)[C@H](Cc1ccccc1)NC(=O)[C@H](CC(N)=O)NC(=O)c1ccc2ccccc2n1 | – | – | IC50 (C8166): 2 nM; IC50 (JM1): 2.5 nM
5 | COC(=O)[C@@H](NC(=O)[C@@H](NC(=O)CC[C@@H](O)[C@@H](Cc1ccccc1)NC(=O)[C@H](C)NC(=O)[C@H](C)N)C(C)C)C(C)C (HELM PEPTIDE1{A.A.[O=C(CC[C@@H](O)[C@@H](Cc1ccccc1)N[*:1])[*:2]].V.V.[CO[*:1]]}$$$$V2.0) | 18 | – | Concentration [3]: 100 µM
6 | COC(=O)[C@@H](NC(=O)[C@@H](NC(=O)CCP(=O)(O)[C@@H](Cc1ccccc1)NC(=O)[C@H](C)NC(=O)[C@H](C)NC(=O)[C@@H](N)CO)C(C)C)C(C)C (HELM PEPTIDE1{S.A.A.[O=C(CCP(=O)(O)[C@@H](Cc1ccccc1)N[*:1])[*:2]].V.V.[CO[*:1]]}$$$$V2.0) | 4400 | – | –
7 | CC(C)[C@H](NC(=O)OCc1ccccc1)C(=O)N[C@@H](Cc1ccccc1)[C@H](O)[C@H](O)[C@H](Cc1ccccc1)NC(=O)[C@@H](NC(=O)OCc1ccccc1)C(C)C | – | 0.2 nM and < 0.4 nM | IC50 (H9 [4]): 20 nM; CC50 [5]: 10000 nM; CC50 [6]: 10000 nM; IC50 (MT4): 20 nM
8 | CC(=O)N[C@@H](CO)C(=O)N[C@@H](CCC(N)=O)C(=O)N[C@@H](CC(N)=O)C(=O)N[C@@H](Cc1ccccc1)[C@@H](O)CC(=O)N[C@H](C(=O)N[C@H](C(N)=O)C(C)C)C(C)C (HELM PEPTIDE1{[ac].S.Q.N.[O=C(C[C@H](O)[C@H](Cc1ccccc1)N[*:1])[*:2]].V.V.[am]}$$$$V2.0) | 39000 | – | –
9 | COC(=O)[C@@H](NC(=O)[C@@H](NC(=O)C[C@H](O)[C@H](Cc1ccccc1)NC(=O)[C@H](C)NC(=O)[C@H](C)NC(=O)[C@@H](N)CO)C(C)C)C(C)C (HELM PEPTIDE1{S.A.A.[O=C(C[C@H](O)[C@H](Cc1ccccc1)N[*:1])[*:2]].V.V.[CO[*:1]]}$$$$V2.0) | 1200 | – | –
10 | CC(C)[C@H](NC(=O)[C@@H](NC(=O)C(Cc1ccccc1)CP(=O)(O)[C@@H](Cc1ccccc1)NC(=O)c1ccccc1)C(C)C)C(N)=O (stereo partly drawn) | 0.6 | – | –
11 | CCCC[C@H](CN[C@H](CCCC)C(=O)N[C@@H](CCC(N)=O)C(=O)N[C@@H](CCCNC(=N)N)C(N)=O)NC(=O)[C@@H](NC(=O)[C@@H](NC(C)=O)[C@@H](C)O)[C@@H](C)CC | – | 780 nM | –
12 | CC(=O)N[C@@H](Cc1ccccc1)C(O)[C@H](Cc1ccccc1)NC(C)=O | – | > 10000 nM | –
13 | CC(C)(C)OC(=O)C1CCCN1C[C@@H](O)[C@H](Cc1ccccc1)NC(=O)[C@H](CC(N)=O)NC(=O)OCc1ccccc1 (stereo partly drawn) | – | 140 nM | –
14 | CC[C@H](C)[C@H](NC(=O)[C@@H](C[C@H](O)[C@H](CC(C)C)NC(=O)[C@H](Cc1c[nH]cn1)NC(=O)[C@H](Cc1ccccc1)NC(=O)[C@@H]1CCCN1C(=O)[C@H](Cc1c[nH]cn1)NC(=O)OC(C)(C)C)C(C)C)C(=O)N[C@@H](Cc1c[nH]cn1)C(=O)O (HELM PEPTIDE1{[CC(C)(C)OC(=O)[*:2]].H.P.F.H.[CC(C)C[C@H](N[*:1])[C@@H](O)C[C@H](C(=O)[*:2])C(C)C].I.H}$$$$V2.0) | 5 | – | –
15 | CC[C@H](C)[C@H](NC(=O)C1CCCN1C[C@H](C)[C@H](Cc1ccccc1)NC(=O)[C@H](CC(N)=O)NC(=O)[C@H](CC(C)C)NC(=O)[C@H](CO)NC(C)=O)C(=O)N[C@H](C(=O)OC)C(C)C (stereo partly drawn) (HELM PEPTIDE1{[ac].S.L.N.[C[C@@H](CN1CCCC1C(=O)[*:2])[C@H](Cc1ccccc1)N[*:1]].I.V.[CO[*:1]]}$$$$V2.0) | 0.66 | – | –
16 | CC(C)C[C@H](NC(=O)[C@H](Cc1ccccc1)CP(=O)(O)[C@H](Cc1ccccc1)NC(=O)OC(C)(C)C)C(=O)N[C@@H](Cc1ccccc1)C(N)=O | – | 9 nM | –
17 | CC[C@H](C)[C@H](NC(=O)[C@@H]1CCCN1C[C@H](Cc1ccccc1)NC(=O)[C@H](CC(N)=O)NC(=O)[C@H](CCC(N)=O)NC(=O)[C@H](CO)NC(=O)[C@@H](N)C(C)C)C(=O)N[C@H](C(=O)O)C(C)C (HELM PEPTIDE1{V.S.Q.N.[O=C([C@@H]1CCCN1C[C@H](Cc1ccccc1)N[*:1])[*:2]].I.V}$$$$V2.0) | – | 3.5 nM | –
18 | CC(C)[C@H](NC(=O)OCc1ccccc1)C(=O)N[C@@H](Cc1ccccc1)C(O)[C@H](Cc1ccccc1)NC(=O)[C@@H](NC(=O)OCc1ccccc1)C(C)C | – | 3 nM | –
19 | CC[C@H](C)[C@H](NC(=O)[C@@H](C[C@H](O)[C@H](CC1CCCCC1)NC(=O)[C@H](C)NC(C)(C)C)C(C)C)C(=O)NCc1ccccn1 | 70 | – | –
20 | CC(C)[C@H](NC(=O)[C@@H](NC(=O)C(Cc1ccccc1)CP(=O)(O)[C@@H](Cc1ccccc1)NC(=O)[C@@H](NC(=O)[C@@H](NC(=O)OC(C)(C)C)C(C)C)C(C)C)C(C)C)C(N)=O (stereo partly drawn) (HELM PEPTIDE1{[CC(C)(C)OC(=O)[*:2]].V.V.[O=C(C(Cc1ccccc1)CP(=O)(O)[C@@H](Cc1ccccc1)N[*:1])[*:2]].V.V.[am]}$$$$V2.0) | 0.04 | – | –
21 | CC(C)(C)OC(=O)N[C@@H](Cc1ccccc1)[C@@H](O)C[C@@H](Cc1ccccc1)C(=O)N[C@H]1c2ccccc2C[C@H]1O | – | – | IC100 (H9 [7]): 200 nM
22 | CC[C@H](C)[C@H](NC(=O)[C@H](C(C)C)[C@@H](O)[C@H](O)[C@H](CC1CCCCC1)NC(=O)[C@H](Cc1c[nH]cn1)NC(=O)COc1cccc2ccccc12)C(=O)NCc1ccccn1 | < 1 | – | –
